Literature values in patent US20060173179A1, “Azabenzoxazoles for the treatment of CNS disorders” (Pfizer Inc, priority 2004, published 2006).

How the values were obtained:
[1] = not given; remark: listed apart in the source

protein binding: extensive
half-life ([1]; in vivo): 6 to 7 h
Oral bioavailability ([1]; taken with food): approximately 60%
Compound: O=C1Cc2cc(CCN3CCN(c4nsc5ccccc45)CC3)c(Cl)cc2N1 [Ziprasidone, 5-[2-[4-(1,2-benzisothiazol-3-yl)piperazin-1-yl]ethyl]-6-chloroindolin-2-one]
